# Molecular target: Beta-lactamase (Pseudomonas aeruginosa, UniProt Q79MP6)
# Test: Competitive inhibition of Pseudomonas aeruginosa beta-lactamase IMP-1 assessed as formation of 4-nitrothiophenolate at pH 7 using CENTA as chromogenic substrate
# Beta-lactamase, sequence (Q79MP6 whole entry): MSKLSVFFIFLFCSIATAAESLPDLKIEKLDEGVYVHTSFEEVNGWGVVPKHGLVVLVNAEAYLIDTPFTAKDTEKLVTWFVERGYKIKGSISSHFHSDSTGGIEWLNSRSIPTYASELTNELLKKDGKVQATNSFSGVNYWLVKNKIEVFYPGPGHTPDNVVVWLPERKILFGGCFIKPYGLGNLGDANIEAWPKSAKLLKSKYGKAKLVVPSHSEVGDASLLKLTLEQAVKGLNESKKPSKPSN
row,SMILES,Ki [µM]
1,O=C(c1ccccc1)c1ccc(-c2nnc(S)[nH]2)cc1,75
2,NC(S)=NNC(=O)c1ccccc1,19
3,Cc1ccc(C(=O)c2ccc(C(=O)NNC(N)=S)cc2)cc1,41
4,NC(=S)NNC(=O)c1ccc(Cc2ccccc2)cc1,18
5,NC(=S)NNC(=O)c1ccc(C(=O)c2ccccc2Cl)cc1,14
6,NC(=S)NNC(=O)c1ccc(C(=O)c2ccc([N+](=O)[O-])cc2)cc1,11
7,NC(=S)NNC(=O)c1ccc(C(=O)c2ccccc2)cc1,13
8,NC(=S)NNC(=O)c1ccc(C(=O)c2cccc([N+](=O)[O-])c2)cc1,16

# Source: BindingDB's records for doi:10.1016/j.bmcl.2011.10.116 (The University of Queensland, 2012)
